The values below come from ChEMBL document CHEMBL1130958, “Templates for design of inhibitors for serine proteases: application of the program DOCK to the discovery of novel inhibitors for thrombin” (Bioorg Med Chem Lett, 1998).

The assay deals with Prothrombin (Homo sapiens, UniProt P00734). Kind of assay: Dissociation constant was evaluated by competitive inhibition of alpha-thrombin using the method of Dixon enzyme assay.

In general, Ki refers to the dissociation constant of the complex between target and ligand, obtained from inhibition or displacement. A high value points to lower affinity. `O=C(/N=N/c1ccccc1)NNc1ccccc1` came in with a Ki of 1.7 µM. The figure for `c1ccc(CN2CCN(Cc3ccccc3)CCN(Cc3ccccc3)CC2)cc1` is 410 µM.
